Source: patent US20180289809A1, “FORMULATIONS OF HYDROPHILIC COMPOUNDS” (BCS Business Consulting Services Pte Ltd., priority 2015, published 2018)

Experiment: Formation of clear nanoemulsion formulation with substituted hydrophobic phase ingredient
Type: physicochemical
Details: used as hydrophobic phase ingredient substituted into the examples; failures generally began cloudy and separated into two phases, primarily within 24 hours

Question: For CC(C)=CCC/C(C)=C/CC/C(C)=C/CC/C=C(\C)CC/C=C(\C)CCC=C(C)C [Squalene], which “forms successful nanoemulsion / clear formulation” value is on record?
Answer: The value was “did form clear formulations”.

Question: For CCCCCCCCCCCCCCCCOC(=O)CCCCCCC [cetyl octanoate], which “forms successful nanoemulsion / clear formulation” value is on record?
Answer: Its value is “did not form successful nanoemulsion formulations”.

Question: With C[Si]1(C)O[Si](C)(C)O[Si](C)(C)O[Si](C)(C)O[Si](C)(C)O1 [cycopentasiloxane] as the compound, how does the “forms successful nanoemulsion / clear formulation” value read?
Answer: The value was “did not form successful nanoemulsion formulations”.

Question: For CCCCC(CC)COC(=O)c1ccccc1 (stereo not shown) [ethylhexyl benzoate], which “forms successful nanoemulsion / clear formulation” value is on record?
Answer: Its value is “did not form successful nanoemulsion formulations”.

Question: With CCCCCCCCCCCCCCCC(=O)OC(C)C [isopropyl palmitate] as the compound, how does the “forms successful nanoemulsion / clear formulation” value read?
Answer: Its value is “did not form successful nanoemulsion formulations”.

Question: With CCCCCCCCCCCCCCCCCC(=O)OCCCCCCCC [octyl stearate] as the compound, how does the “forms successful nanoemulsion / clear formulation” value read?
Answer: The value was “did not form successful nanoemulsion formulations”.

Question: For CCCCC/C=C\C/C=C\CCCCCCCC(=O)Oc1c(C)c(C)c2c(c1C)CC[C@@](C)(CCC[C@H](C)CCC[C@H](C)CCCC(C)C)O2 [tocopheryl linoleate], which “forms successful nanoemulsion / clear formulation” value is on record?
Answer: The value was “did not form successful nanoemulsion formulations”.
